Reference: US10435406B2, “6,7-cyclicmorphinan derivatives and use thereof” (Purdue Pharma L.P., priority 2014, dated 2019)

Assays:
Assay type in all cases: biochemical
μ-opioid receptor [1] = target: T1, μ-opioid receptor (Homo sapiens (Human), UniProt P35372); assay: μ-opioid receptor [35S]GTPγS functional assay (HEK); details: for Emax: relative to DAMGO
Experimental: (§1) [^35S]GTPγS functional assays were conducted using freshly thawed μ-receptor membranes prepared in-house from a cell line expressing recombinant μ opioid receptor in a HEK-293, CHO or U-2 OS cell background, or purchased from a commercial source (Perkin Elmer, Shelton, Conn.; or DiscovRx, Fremont, Calif.). Assay reactions were prepared by sequentially adding the following reagents to binding buffer (100 mM NaCl, 10 mM MgCl2, 20 mM HEPES, pH 7.4) on ice (final concentrations indicated): membrane protein (0.026 mg/mL), saponin ([…]), GDP ([…]) and [^35S]GTPγS (0.20 nM; Perkin Elmer, Shelton, Conn.). The prepared membrane solution (190 μl/well) was transferred to 96-shallow well polypropylene plates containing 10 μl of 20× concentrated stock solutions of the agonist [D-Ala^2, N-methyl-Phe^4 Gly-ol^5]-enkephalin (DAMGO) prepared in dimethyl sulfoxide (DMSO). Plates were incubated for […] at about 25° C. with shaking. Reactions were terminated by rapid filtration onto 96-well Unifilter GF/B filter plates (Perkin Elmer, Shelton, Conn.) using a 96-well tissue harvester (Perkin Elmer, Shelton, Conn.) followed by three filtration washes with 200 μl of ice-cold wash buffer (10 mM NaH2PO4, 10 mM Na2HPO4, pH 7.4). Filter plates were subsequently dried at 50° C. for 2-3 hours. BetaScint scintillation cocktail (Perkin Elmer, Shelton, Conn.) was added (50 μl/well) and plates were counted using a Packard Top-Count for 1 min/well. Data were analyzed using the sigmoidal dose-response curve fitting functions in GraphPad PRISM v. 3.0, or an in-house function for non-linear, sigmoidal dose-response curve-fitting.
(§2) μ GTP EC50 is the concentration of a compound providing 50% of the maximal response for the compound at a μ-opioid receptor.
(§3) μ GTP Emax (%) is the maximal effect elicited by a compound relative to the effect elicited by DAMGO, a standard agonist. Generally, the μ GTP Emax (%) value measures the efficacy of a compound to treat or prevent pain or other Conditions.
(§4) In TABLE 3, activity response of certain Compounds of the Invention to the μ- and κ-opioid receptors was determined as described above for functional assays using HEK cells.

μ-opioid receptor [2] = target: T1, μ-opioid receptor; assay: μ-opioid receptor [35S]GTPγS functional assay (U-2 OS); details: for Emax: U2OS, GTPγS, relative to DAMGO
Experimental: as §1, §2, §3
(§5) In TABLE 4, activity response of certain Compounds of the Invention to the μ- and κ-opioid receptors was determined as described above for functional assays using U-2 OS cells.

κ opioid receptor [3] = target: T2, κ opioid receptor (Homo sapiens (Human), UniProt P41145); assay: κ-opioid receptor [35S]GTPγS functional assay (U-2 OS); details: for Emax: U2OS, GTPγS, relative to U69,593
Experimental: (§6) Functional [^35S]GTPγS binding assays were conducted as follows. K opioid receptor membrane solution was prepared by sequentially adding final concentrations of 0.026 μg/μl membrane protein (in-house), 10 μg/mL saponin, 3 μM GDP and 0.20 nM [^35S]GTPγS to binding buffer (100 mM NaCl, 10 mM MgCl2, 20 mM HEPES, pH 7.4) on ice. The prepared membrane solution (190 μl/well) was transferred to 96-shallow well polypropylene plates containing 10 μl of 20× concentrated stock solutions of agonist prepared in DMSO. Plates were incubated for 30 min at a temperature of about 25° C. with shaking. Reactions were terminated by rapid filtration onto 96-well Unifilter GF/B filter plates (Perkin Elmer, Shelton, Conn.) using a 96-well tissue harvester (Packard) and followed by three filtration washes with 200 μl ice-cold binding buffer (10 mM NaH2PO4, 10 mM Na2HPO4, pH 7.4). Filter plates were subsequently dried at 50° C. for 2-3 hours. Fifty μl/well scintillation cocktail (Perkin Elmer, Shelton, Conn.) was added and plates were counted in a Packard Top-Count for 1 min/well.
(§7) GTP EC50 is the concentration of a compound providing 50% of the maximal response for the compound at a κ receptor.
(§8) κ GTP Emax (%) is the maximal effect elicited by a compound relative to the effect elicited by U69,593.
as §5

κ opioid receptor [4] = target: T2, κ opioid receptor; assay: κ-opioid receptor [35S]GTPγS functional assay (HEK); details: for Emax: HEK, GTPγS, relative to U69,593
Experimental: as §6, §7, §8, §4

SMILES	EC50 (μ-opioid receptor [1]) [µM]	Emax (μ-opioid receptor [1]; HEK, GTPγS) [%]	EC50 (μ-opioid receptor [2]) [nM]	Emax (μ-opioid receptor [2]) [%]	EC50 (κ opioid receptor [3]) [nM]	Emax (κ opioid receptor [3]) [%]	EC50 (κ opioid receptor [4]) [nM]	Emax (κ opioid receptor [4]) [%]	EC50 (μ-opioid receptor [1]; HEK, GTPγS, bound given in μM, read-out: μ EC50) [µM]
COc1ccc2c(c1)[C@]13CCN(C)[C@H](C2)[C@]1(O)CC1=CC(=O)N[C@H]1C3 [Compound 2, (6R,6aS,10aS,11aR)-6a-hydroxy-2-methoxy-14-methyl-5,6,6a,7,10a,11-hexahydro-6,11a-(epiminoethano)naphtho[2,1-f]indol-9(10H)-one]	12.3 ± 0.615	51.8 ± 0.39	738 ± 59	103.3 ± 0.67	> 20000	84.7 ± 2.73	–	–	–
COc1ccc2c(c1)[C@]13CCN(C)[C@H](C2)[C@]1(O)C[C@H]1CC(=O)N[C@H]1C3 [Compound 3, (6R,6aS,7aS,10aS,11aR)-6a-hydroxy-2-methoxy-14-methyl-5,6,6a, 7,7a,8,10a,11-octahydro-6,11a-(epiminoethano)naphtho[2,1-f]indol-9(10H)-one]	2.28	106 ± 0.58	92.9 ± 6.03	102.7 ± 0.67	> 20000	108 ± 9.39	18800 ± 4870	52 ± 6.11	–
O=C1C[C@@H]2C[C@@]3(O)[C@H]4Cc5ccc(O)cc5[C@@]3(CCN4CCCc3ccccc3)C[C@@H]2N1 [Compound 4, (6R,6aS,7aS,10aS,11aR)-2,6a-dihydroxy-14-(3-phenylpropyl)-5,6,6a,7,7a,8,10a,11-octahydro-6,11a-(epiminoethano)naphtho[2,1-f]indol-9(10H)-one]	0.321 ± 0.0206	47.3 ± 7.26	–	–	–	–	–	–	–
O=C1C[C@@H]2C[C@@]3(O)[C@H]4Cc5ccc(O)cc5[C@@]3(CCN4CC3CCOCC3)C[C@@H]2N1 [Compound 6, (6R,6aS,7aS,10aS,11aR)-2,6a-dihydroxy-14-((tetrahydro-2H-pyran-4-yl)methyl)-5,6,6a,7,7a,8,10a,11-octahydro-6,11a-(epiminoethano)naphtho[2,1-f]indol-9(10H)-one]	1.47	7.33 ± 0.88	–	–	–	–	–	–	–
O=C1C[C@@H]2C[C@@]3(O)[C@H]4Cc5ccc(O)cc5[C@@]3(CCN4CC[C@@]3(c4ccccn4)CCOC4(CCCC4)C3)C[C@@H]2N1 [Compound 7, (6R,6aS,7aS,10aS,11aR)-2,6a-dihydroxy-14-(2-((R)-9-(pyridin-2-yl)-6-oxaspiro-[4.5]decan-9-yl)ethyl)-5,6,6a,7,7a,8,10a,11-octahydro-6,11a-(epiminoethano)-naphtho[2,1-f]indol-9(10H)-one]	–	4.5	–	–	–	–	–	–	> 20
COc1ccc2c(c1)[C@]13CCN(CC4CC4)[C@H](C2)[C@]1(O)CC1=CC(=O)NC1C3 (stereo partly drawn) [Compound 8, (6R,6aS,11aR)-14-(cyclopropylmethyl)-6a-hydroxy-2-methoxy-5,6,6a,7,10a,11-hexahydro-6,11a-(epiminoethano)naphtho[2,1-f]indol-9(10H)-one]	> 20	-0.33 ± 0.67	846 ± 72.5	49 ± 1	585 ± 29.3	115 ± 3.53	1750 ± 197	66.7 ± 1.33	–
CCN1C(=O)C[C@@H]2C[C@@]3(O)[C@H]4Cc5ccc(OC)cc5[C@@]3(CCN4CC3CC3)C[C@@H]21 [Compound 11, (6R,6aS,7aS,10aS,11aR)-14-(cyclopropylmethyl)-10-ethyl-6a-hydroxy-2-methoxy-5,6,6a,7,7a,8,10a,11-octahydro-6,11a-(epiminoethano)naphtho[2,1-f]indol-9(10H)-one]	0.625 ± 0.0326	36.4 ± 2.23	204 ± 11.2	78 ± 3	16.9 ± 1.96	107 ± 3.94	–	–	–
CN1C(=O)C[C@@H]2C[C@@]3(O)[C@H]4Cc5ccc(O)cc5[C@@]3(CCN4CC3CC3)C[C@@H]21 [Compound 12, (6R,6aS,7aS,10aS,11aR)-14-(cyclopropylmethyl)-2,6a-dihydroxy-10-methyl-5,6,6a,7,7a,8,10a,11-octahydro-6,11a-(epiminoethano)naphtho[2,1-f]indol-9(10H)-one]	0.00218 ± 2.1e-05	29.3 ± 0.33	–	–	–	–	0.66 ± 0.014	106 ± 6.78	–
COc1ccc2c(c1)[C@]13CCN(CC4CC4)[C@H](C2)[C@]1(O)C[C@H]1CC(=O)N(CC(C)C)[C@H]1C3 [Compound 13, (6R,6aS,7aS,10aS,11aR)-14-(cyclopropylmethyl)-6a-hydroxy-10-isobutyl-2-methoxy-5,6,6a,7,7a,8,10a,11-octahydro-6,11a-(epiminoethano)naphtho[2,1-f]indol-9(10H)-one]	0.224 ± 0.0346	13.2 ± 1.39	82.2 ± 1.71	55 ± 2	19.5 ± 1.37	106 ± 2.4	–	–	–
COc1ccc2c(c1)[C@]13CCN(CC4CC4)[C@H](C2)[C@]1(O)C[C@H]1CC(=O)N(CC2CC2)[C@H]1C3 [Compound 14, (6R,6aS,7aS,10aS,11aR)-10,14-bis(cyclopropylmethyl)-6a-hydroxy-2-methoxy-5,6,6a,7,7a,8,10a,11-octahydro-6,11a-(epiminoethano)naphtho[2,1-f]indol-9(10H)-one]	0.146 ± 0.0211	13.2 ± 0.95	49.5 ± 3.87	43.7 ± 4.7	16.6 ± 1.93	101.8 ± 0.63	–	–	–
COc1ccc2c(c1)[C@]13CCN(CC4CC4)[C@H](C2)[C@]1(O)C[C@H]1CC(=O)N(C)[C@H]1C3 [Compound 15, (6R,6aS,7aS,10aS,11aR)-14-(cyclopropylmethyl)-6a-hydroxy-2-methoxy-10-methyl-5,6,6a,7,7a,8,10a,11-octahydro-6,11a-(epiminoethano)naphtho[2,1-f]indol-9(10H)-one]	0.863 ± 0.0697	23.6 ± 2.32	349 ± 26.3	75 ± 3	113 ± 36.3	129 ± 5	–	–	–
O=C1C[C@@H]2C[C@@]3(O)[C@H]4Cc5ccc(O)cc5[C@@]3(CCN4CC3CC3)C[C@@H]2N1CC1CC1 [Compound 17, (6R,6aS,7aS,10aS,11aR)-10,14-bis(cyclopropylmethyl)-2,6a-dihydroxy-5,6,6a,7,7a,8,10a,11-octahydro-6,11a-(epiminoethano)-naphtho[2,1-f]indol-9(10H)-one]	> 20	1	–	–	–	–	–	–	–
O=C1C=C2C[C@@]3(O)[C@H]4Cc5ccc(O)cc5[C@]3(C=C2N1CC1CC1)CCN4CC1CC1 [Compound 18, (6R,6aS,11aR)-10,14-bis(cyclopropylmethyl)-2,6a-dihydroxy-5,6,6a,7-tetrahydro-6,11a-(epiminoethano)naphtho[2,1-f]indol-9(10H)-one]	> 20	6	–	–	–	–	–	–	–
COc1ccc2c(c1)[C@]13CCN(C)[C@H](C2)[C@]1(O)C[C@@H]1NC(=O)O[C@@H]1C3 [Compound 19, (6R,6aS,7aS,10aR,11aR)-6a-hydroxy-2-methoxy-14-methyl-5,6,6a,7,7a,8,10a,11-octahydro-9H-6,11a-(epiminoethano)phenanthro[2,3-d]oxazol-9-one]	> 20	2 ± 0.58	–	–	–	–	–	–	–
CN1CC[C@]23C[C@@H]4OC(=O)N[C@H]4C[C@@]2(O)[C@H]1Cc1ccc(O)cc13 [Compound 20, (6R,6aS,7aS,10aS,11aR)-2,6a-dihydroxy-14-methyl-5,6,6a,7,7a,8,10a,11-octahydro-9H-6,11a-(epiminoethano)phenanthro[2,3-d]oxazol-9-one]	1.31	12.4 ± 0.77	–	–	–	–	–	–	–
